Measurements: PubChem BioAssay AID1963430 (Molecular Pharmacology Branch, DTP, NCI, 2024)

Test system: 521955-158-R2-J5-PDC complex spheroid growth, % test/control
Assay: Anticancer human tumor 521955-158-R2-J5-PDC patient-derived pancreatic carcinoma cell line growth inhibition [Asc]
Conditions: for IC50: curve of first compound; for viability, T/C: stronger effect = lower value
Description: Multicellular complex tumor spheroid response to apoptosis pathway targeting inhibitors Alrizomadlin, Pelcitoclax, and Dasminapant in combination with a variety of drugs and investigational agents in selected tumor cell lines
The MDM2 inhibitor alrizomadlin, the Bcl-2/Bcl-xL inhibitor pelcitoclax, and the IAPs inhibitor dasminapant were evaluated both individually and in combination with standard of care and investigational anticancer small molecules within a complex spheroid model of solid tumors. . Complex spheroids include a stromal component modeled by human endothelial cells (HUVEC) and fibroblasts modeled by human mesenchymal stem cells (MSCs). The concentration ranges selected for each drug and investigational agent were based upon clinically achievable concentrations if the clinical Cmax of the agent was known.
Compounds. The drugs and investigational agents: alrizomadlin (APG-115; NSC831270), pelcitoclax (APG-1252; NSC835773), dasminapant (APG-1387;NSC834197), TAK-243 (NSC785004), copanlisib (NSC809693), olaparib (NSC753686), talazoparib (NSC767125), cobimetinib (NSC 768068), eltanexor (KPT-8602, NSC 794443), abemaciclib (NSC 768073), sotorasib (NSC818433), adagrasib (NSC 831453), MRTX-1133 (NSC 836407), Iadademestat (ORY1001, NSC 806812), and RMC-4630 (NSC839698), were obtained from the NCI Developmental Therapeutics Program Chemical Repository. The FDA-approved anticancer drug set is available from the Developmental Therapeutics Program at https://dtp.cancer.gov/organization/dscb/obtaining/available plates.htm. […] The stock solutions were prepared in dimethyl sulfoxide (DMSO, Sigma-Aldrich, St. Louis, MO, cat. D2650) at 800-fold the tested concentration and stored at -70 degrees C prior to their use. All drugs and investigational agents were tested over a range starting from a high concentration at or near the clinical Cmax and decreasing in half-log increments. If the clinical Cmax for an agent had not been determined, the highest concentration tested was 10 microM.
The patient-derived cancer (PDC) cell lines include five colon adenocarcinomas: 186277-243-T-J2-PDC, 616215-338-R-J1-PDC, 439559-082-T-J2-PDC, 463943-066-T-J2-PDC, and 519858-162-T-J1-PDC; three pancreatic carcinomas: 323965-272-R-J2-PDC, 521955-158-R6-J3-PDC, and 521955-158-R2-J5-PDC; two uterine sarcomas: 327498-152-R-J2-PDC and 993429-296-R-J1-PDC; two rhabdomyosarcomas: 755483-174-R-J1-PDC and 772245-204-R-J1-PDC; two soft tissue sarcomas: 126254-015-R-J1-PDC and 494315-158-R-J1-PDC; two malignant fibrous histiocytomas: 317291-083-R-J1-PDC and 596521-263-R-J1-PDC; two breast carcinomas: 171881-019-R-J1-PDC and 885512-296-R-J2-PDC; and one ovarian carcinoma: 6556581-035-R-J-PDC were obtained from the NCI PDMR, (https://pdmr.cancer.gov). The established cell lines HSSY-2 synovial sarcoma (RRID:CVCL 8719), SYO-1 synovial sarcoma (RRID:CVCL_7146), MPNST malignant peripheral neural sheath tumor were obtained from the Sloan Kettering Institute. The following established cell lines were purchased from the American Type Culture Collection (ATCC, Manassas, VA), Sor the received from the NCI repository:, PANC-1 pancreatic carcinoma (CRL-1469, RRID:CVCL_0480), OVCAR-5 ovarian carcinoma (RRID:CVCL_1628), OVCAR-8 ovarian carcinoma (RRID:CVCL_1629), , MCF-7 breast carcinoma (CRL-12584, RRID:CVCL_0031), MDA-MB-231 breast carcinoma (CRL-12532, RRID:CVCL_0062), NCI-H1876 small cell lung carcinoma (CRL-5902, RRID:CVCL_1503), NCI-H510A small cell lung carcinoma (HTB-184, RRID:CVCL_1565), NCI-H1417 (CRL-5869, RRID:CVCL_1469), and NCI-H196 small cell lung carcinoma (CRL-5823, RRID:CVCL_1509). Dr. Peter Houghton (Greehey Children's Cancer Research Institute, University of Texas Health Science Center, San Antonio, TX) provided Rh-18 rhabdomyosarcoma (RRID:CVCL_1659). Pooled donor human umbilical vein endothelial cells (HUVEC, Lonza, cat. CC-2519) and human mesenchymal stem cells (hMSC, Lonza, cat. PT-2501) were purchased from Lonza (Walkersville, MD).
Cell Culture. […]
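Note: spheroids exposed to agents for 7 days before readout.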
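Throughout, for viability, T/C: 100% = DMSO vehicle control viability.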

With O=C(c1cc(Cc2n[nH]c(=O)c3ccccc23)ccc1F)N1CCN(C(=O)C2CC2)CC1 + CNC(C)C(=O)NC1CN(S(=O)(=O)c2cccc(S(=O)(=O)N3CCC4CCC(C(=O)NC(c5ccccc5)c5ccccc5)N4C(=O)C(NC(=O)C(C)NC)C3)c2)CCC2CCC(C(=O)NC(c3ccccc3)c3ccccc3)N2C1=O the IC50 (second compound 0.01 µM) was greater than 10 µM, the IC50 (second compound 0.0316 µM) was greater than 10 µM and the IC50 (second compound 0.1 µM) was greater than 10 µM. For the same molecule, the IC50 (second compound 0.316 µM) was greater than 10 µM, the IC50 (second compound 1 µM) was greater than 10 µM and the viability, T/C (second compound 0.01 µM, first compound 0.0316 µM) was 74.8%. It also gave a viability, T/C (second compound 0.01 µM, first compound 0.1 µM) of 92.3%, a viability, T/C (second compound 0.01 µM, first compound 0.316 µM) of 60.6% and a viability, T/C (second compound 0.01 µM, first compound 1 µM) of 66.1%. It also gave a viability, T/C (second compound 0.01 µM, first compound 3.16 µM) of 73.4%, a viability, T/C (second compound 0.01 µM, first compound 10 µM) of 64.3% and a viability, T/C (second compound 0.0316 µM, first compound 0.0316 µM) of 66.8%. For the same molecule, the viability, T/C (second compound 0.0316 µM, first compound 0.1 µM) was 77.8%, the viability, T/C (second compound 0.0316 µM, first compound 0.316 µM) was 98.6% and the viability, T/C (second compound 0.0316 µM, first compound 1 µM) was 75.8%. It also gave a viability, T/C (second compound 0.0316 µM, first compound 3.16 µM) of 64.9%, a viability, T/C (second compound 0.0316 µM, first compound 10 µM) of 64.6% and a viability, T/C (second compound 0.1 µM, first compound 0.0316 µM) of 71.8%. It also gave a viability, T/C (second compound 0.1 µM, first compound 0.1 µM) of 87.9%, a viability, T/C (second compound 0.1 µM, first compound 0.316 µM) of 76.4% and a viability, T/C (second compound 0.1 µM, first compound 1 µM) of 61.1%. The viability, T/C (second compound 0.1 µM, first compound 3.16 µM) was 74.6%, the viability, T/C (second compound 0.1 µM, first compound 10 µM) was 73.2% and the viability, T/C (second compound 0.316 µM, first compound 0.0316 µM) was 89%. The viability, T/C (second compound 0.316 µM, first compound 0.1 µM) was 95.7%, the viability, T/C (second compound 0.316 µM, first compound 0.316 µM) was 82.1% and the viability, T/C (second compound 0.316 µM, first compound 1 µM) was 71.2%. It also gave a viability, T/C (second compound 0.316 µM, first compound 3.16 µM) of 71.5%, a viability, T/C (second compound 0.316 µM, first compound 10 µM) of 61.5% and a viability, T/C (second compound 1 µM, first compound 0.0316 µM) of 73%. The viability, T/C (second compound 1 µM, first compound 0.1 µM) was 81.4%, the viability, T/C (second compound 1 µM, first compound 0.316 µM) was 78.8% and the viability, T/C (second compound 1 µM, first compound 1 µM) was 67.6%. It also gave a viability, T/C (second compound 1 µM, first compound 3.16 µM) of 62.5% and a viability, T/C (second compound 1 µM, first compound 10 µM) of 66.8%.

For CCN1C(C(=O)NC23CCC(C(=O)O)(CC2)CC3)C(c2cccc(Cl)c2F)C2(C(=O)Nc3cc(Cl)ccc32)C12CCCCC2 (stereo not given) + CNC(C)C(=O)NC1CN(S(=O)(=O)c2cccc(S(=O)(=O)N3CCC4CCC(C(=O)NC(c5ccccc5)c5ccccc5)N4C(=O)C(NC(=O)C(C)NC)C3)c2)CCC2CCC(C(=O)NC(c3ccccc3)c3ccccc3)N2C1=O, the IC50 (second compound 0.01 µM) was greater than 3 µM, the IC50 (second compound 0.0316 µM) was greater than 3 µM and the IC50 (second compound 0.1 µM) was greater than 3 µM. It also gave an IC50 (second compound 0.316 µM) greater than 3 µM, an IC50 (second compound 1 µM) greater than 3 µM and a viability, T/C (second compound 0.01 µM, first compound 0.00949 µM) of 107%. For the same molecule, the viability, T/C (second compound 0.01 µM, first compound 0.03 µM) was 112%, the viability, T/C (second compound 0.01 µM, first compound 0.0949 µM) was 90.5% and the viability, T/C (second compound 0.01 µM, first compound 0.3 µM) was 91.9%. It also gave a viability, T/C (second compound 0.01 µM, first compound 0.949 µM) of 112%, a viability, T/C (second compound 0.01 µM, first compound 3 µM) of 116% and a viability, T/C (second compound 0.0316 µM, first compound 0.00949 µM) of 119%. It also gave a viability, T/C (second compound 0.0316 µM, first compound 0.03 µM) of 114%, a viability, T/C (second compound 0.0316 µM, first compound 0.0949 µM) of 100% and a viability, T/C (second compound 0.0316 µM, first compound 0.3 µM) of 114%. For the same molecule, the viability, T/C (second compound 0.0316 µM, first compound 0.949 µM) was 97.1%, the viability, T/C (second compound 0.0316 µM, first compound 3 µM) was 97% and the viability, T/C (second compound 0.1 µM, first compound 0.00949 µM) was 91.2%. It also gave a viability, T/C (second compound 0.1 µM, first compound 0.03 µM) of 116%, a viability, T/C (second compound 0.1 µM, first compound 0.0949 µM) of 97.2% and a viability, T/C (second compound 0.1 µM, first compound 0.3 µM) of 101%. It also gave a viability, T/C (second compound 0.1 µM, first compound 0.949 µM) of 114%, a viability, T/C (second compound 0.1 µM, first compound 3 µM) of 118% and a viability, T/C (second compound 0.316 µM, first compound 0.00949 µM) of 94.9%. The viability, T/C (second compound 0.316 µM, first compound 0.03 µM) was 106%, the viability, T/C (second compound 0.316 µM, first compound 0.0949 µM) was 106% and the viability, T/C (second compound 0.316 µM, first compound 0.3 µM) was 98.6%. The viability, T/C (second compound 0.316 µM, first compound 0.949 µM) was 96.1%, the viability, T/C (second compound 0.316 µM, first compound 3 µM) was 119% and the viability, T/C (second compound 1 µM, first compound 0.00949 µM) was 83.3%. For the same molecule, the viability, T/C (second compound 1 µM, first compound 0.03 µM) was 108%, the viability, T/C (second compound 1 µM, first compound 0.0949 µM) was 115% and the viability, T/C (second compound 1 µM, first compound 0.3 µM) was 103%. The viability, T/C (second compound 1 µM, first compound 0.949 µM) was 105% and the viability, T/C (second compound 1 µM, first compound 3 µM) was 108%.
